In general, pKi refers to the Ki on a negative log10 scale, so that one unit is a factor of ten.

The source of these data is ChEMBL document CHEMBL3638593, “Macrocycles as factor XIa inhibitors” (2015).

pKi: −log10 of the molar value.

This test addresses Coagulation factor XI (Homo sapiens, UniProt P03951). In words: In Vitro Assay: The effectiveness of compounds of the present invention as inhibitors of the coagulation Factors XIa, VIIa, IXa, Xa, XIIa, plasma kallikrein or thrombin, can be determined using a relevant purified serine protease, respectively, and an appropriate synthetic substrate. The rate of hydrolysis of the chromogenic or fluorogenic substrate by the relevant serine protease was measured both in the absence and presence of compounds of the present invention. […] A decrease in the rate of absorbance or fluorescence change in the presence of inhibitor is indicative of enzyme inhibition. Such methods are known to one skilled in the art.

Coagulation factor XI, sequence (P03951 19-387 limits assumed): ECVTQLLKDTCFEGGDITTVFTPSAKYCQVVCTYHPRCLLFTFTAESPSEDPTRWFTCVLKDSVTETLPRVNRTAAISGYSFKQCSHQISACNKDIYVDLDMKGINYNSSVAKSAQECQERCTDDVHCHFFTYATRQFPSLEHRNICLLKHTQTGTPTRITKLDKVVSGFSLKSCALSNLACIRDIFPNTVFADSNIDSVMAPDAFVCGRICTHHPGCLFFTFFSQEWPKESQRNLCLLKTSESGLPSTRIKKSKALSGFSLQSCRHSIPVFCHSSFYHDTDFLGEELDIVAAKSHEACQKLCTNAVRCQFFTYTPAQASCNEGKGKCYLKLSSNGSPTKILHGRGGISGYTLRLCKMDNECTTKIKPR
Coagulation factor XI, sequence (P03951 388-625 limits assumed): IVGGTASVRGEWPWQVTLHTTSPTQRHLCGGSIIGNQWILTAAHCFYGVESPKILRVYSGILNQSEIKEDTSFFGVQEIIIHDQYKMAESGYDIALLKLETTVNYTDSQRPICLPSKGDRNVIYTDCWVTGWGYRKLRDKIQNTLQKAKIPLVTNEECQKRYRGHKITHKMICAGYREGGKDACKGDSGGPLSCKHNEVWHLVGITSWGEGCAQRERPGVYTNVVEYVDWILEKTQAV

For the molecule `O=C(/C=C/c1cc(Cl)ccc1-n1cnnn1)N[C@H]1CCCCC(=O)Nc2cc3[nH]ncc3cc2-c2c[nH]c1n2`, the pKi was 6.74.
